Values quoted from earlier work in US4127533A, “Novel octapeptides, intermediates therefor, and compositions and methods employing said octapeptides” (priority 1977, dated 1978).

Columns and labels:
[1] = tested on: brain opiate receptor sites
rat = settings: injected directly into the brain of the rat

What does the source list for “H-Tyr-Gly-Gly-Phe-Met-OH [methionine enkephalin]”?
binding to partially purified brain opiate receptor sites [1]: binds stereo-specifically; analgesic activity (rat): only weak analgesic agent of short duration
